From a melting point compilation (Tetko et al.; mined from patent text by program, amines drawn as free bases though some values may be those of a salt) come the findings set out here.

Usually melting point stands for the temperature of the solid-liquid transition. In the case of `CCOC(=O)CCCCC(=O)c1[nH]c(=O)[nH]c1C`, the melting point was 170 to 172 °C.

Compound `COc1ccc(C2=NN(c3ccc(OCCBr)cc3)C(=O)[C@@H]3CC=CC[C@H]23)cc1OC` returned a melting point of 40 to 45 °C.

`CC(CC(C(=O)N(C)C)(c1ccccc1)c1ccccc1)N1CCC(NCc2ccccc2)C(O)C1` (stereo not given) returned a melting point of 134 °C.

Turning to `COc1ccc(CCNCC(O)c2ccccc2C)cc1OC` (stereo not given), the melting point was 91 to 94 °C.

For the compound `CCOc1ccc2c(c1)nc1n2CC(c2ccccn2)S1=O` (stereo not given), the melting point lay within 145 to 147 °C.

`CS(=O)(=O)c1cc(C(=O)N=C(N)N)ccc1Oc1ccc(=O)[nH]n1` had a melting point of 268 to 270 °C.

With `CN(C)C=CC(=O)c1ccc(Cl)c(S(=O)(=O)N=CN(C)C)c1`, the melting point was in the range of 204 to 206 °C.

In turn, `CC(C)CNS(=O)(=O)CCCCl` gave a melting point of 68 to 69 °C.

In the case of `CCCCC1Sc2c(cc(OC)c(Cl)c2Cl)C1O` (stereo not given), the melting point is 95 to 96 °C.

Compound `Cc1ccc(S(=O)(=O)N2CCC(c3ccc(C=O)cc3)CC2)cc1` had a melting point of 134 to 137 °C.

The compound `COC(=O)c1cccc(Sc2ccc(N(C)C)cc2)c1` showed a melting point of 88 to 90 °C.

For the compound `C=C(C)C(=O)NCCNC(=O)c1ccc2ccccc2c1O`, the melting point lay in the range of 167 to 169 °C.

Regarding `COc1ccc(COCCC(C(=O)O)c2ccccc2)cc1` (stereo not given), the melting point lay within 114 to 115 °C.

Regarding `C=CCn1c(-c2c(Cl)cccc2Cl)nc(-c2ccncc2)c1-c1ccc(C)cc1`, the melting point was in the range of 147 to 149 °C.

`CCC[C@H]1CC[C@H]([C@H]2CC[C@H](C3=CC(=O)CCC3)CC2)CC1` came in with a melting point of 96 °C.

In turn, `NC(=O)C1C=Cc2ccccc2N1C(=O)c1ccc(F)cc1` (stereo not given) came in with a melting point of 149 to 151 °C.

For the compound `CCOc1cc2ncc(C#N)c(Nc3ccc(OCc4cccc(F)c4)c(Cl)c3)c2cc1NC(=O)/C=C/CN(C)C`, the melting point is 165 to 167 °C.

On to `COc1cc(OC)nc(Oc2cccc(Cl)c2C(=O)ON(C)C)n1`, for which the melting point was 80 to 81 °C.

The compound `Nc1cc(Cl)cc(Cl)c1C(=O)NCc1cccc(Br)c1` showed a melting point of 157 to 159 °C.

In turn, `COC(=O)CCCNC1(c2ccccc2Cl)C(=O)Nc2ccc(Cl)cc21` (stereo not given) yielded a melting point of 142 °C.

`CCOc1ccc(-c2c(Cl)c(CCl)nc3sc4c(c23)CCN(C(=O)OCc2ccccc2)C4)cc1` had a melting point of 159 to 161 °C.

`CCOC1=C(C(=O)O)CN(C2CCCCC2)C1=O` registered a melting point of 154 to 155 °C.

The compound `COc1ccc(C(=O)Nc2ccc(-c3ccc(C=O)cc3C)c(C)c2)cc1CCCN(C)C` gave a melting point of 63 to 66 °C.

Consider `O=C(CCNCC(O)COc1cccc2occc12)NCc1ccccc1` (stereo not given), for which the melting point was 109 to 110 °C.

As to `CCOC(=O)C(NC(=O)OC(C)(C)C)C(c1ccc(O)cc1)S(=O)(=O)C(F)(F)F` (stereo not given), the melting point lay within 47 to 49 °C.

Take `CCCC(=O)c1cnc2c(OC)cccc2c1Nc1ccccc1C`: the melting point lay in the range of 215 to 217 °C.

`CC1CC(=O)NN=C1c1cccc(C(F)(F)F)c1` (stereo not given) registered a melting point of 132 to 134 °C.

On to `CC(=O)OCC1CCn2c(c(C3=C(c4cn(C)c5ccccc45)C(=O)OC3=O)c3ccccc32)C1` (stereo not given), for which the melting point was in the range of 174 to 178 °C.

As to `CC(C)(C)c1ccc(CC(=O)O)c(Cc2ccc(CC(=O)O)cc2)c1`, the melting point lay in the range of 138 to 139 °C.

Take `CCN1C(C)=CC(=O)CS1(=O)=O`: the melting point lay in the range of 90 to 92 °C.

For `CC(C)n1cc(-c2nc(C(=O)O)c(N)nc2-c2ccc(F)cc2)ccc1=O`, the melting point came out at 222 °C.

As to `CC(O)C(CCCc1ccccc1)n1ncc2c(=O)[nH]c(Cc3ccc(Br)cc3)nc21` (stereo not given), the melting point is 117 °C.

For the compound `CCOC(=O)c1cc2n(c1)CNc1ccccc1-2`, the melting point was in the range of 140 to 141 °C.

Compound `CC(=O)C(=Cc1cccc([N+](=O)[O-])c1)C(=O)OC(C)C(C)(C)NCCC(c1ccccc1)c1ccccc1` (stereo not given) came in with a melting point of 65 to 80 °C.

The compound `COCc1nc(-c2cc(C(C)(C)C)c(O)c(C(C)(C)C)c2)cs1` gave a melting point of 116 to 117 °C.
